The test system of one series is ICR mice. In words: Acute toxicity of MASA to mice p.o. The settings on record: P = 0.05. It is filed as in vivo. As to the method: (§1) The acute toxicity of MASA was determined on Wistar rats and ICR mice by p.o. introduction.
(§2) Male IRC mice with body mass of 20-22 g and Wistar rats with body mass of 200-230 g were used. For determining the acute toxicity each dose was given to 6 animals, each next dose was increased by 500 mg/kg. LD50 was calculated after Karber by the method of Akhila J S et al, Current Sci 2007; 93:917-920 with modification for determining the dose confidence interval (Turner R In Screening Methods in Pharmacology, Acad. Press, New York, 1965, 61-63).
(§3) LD50 was calculated as follows: LD50=Least dose lethal to all in a group−Σ(a×b)/N N—number of animals in each group a—the dose difference b—the mean mortality (lethality in 2 neighbouring groups/2)
(§4) MASA was dissolved ex tempore in 0.2% agar-agar and introduced per os through catheter into stomach. […] Animals were observed till the Day 10 after introduction.

In another series the test system is Wistar rats. In words: Acute toxicity of MASA to rats p.o. Type of series: in vivo. The settings on record: P = 0.05. As to the method: as §1, §2, §3, §4
For series [1] the following is noted: background statement; cited from earlier work.

With `CC(=O)Oc1ccccc1C(=O)[O-].C[N+](C)(C)NCCC(=O)O` [MASA, 3-(trimethylammonioamino)propanoate Acetylsalicylic Acid Addition Salt], the “confidence interval for LD50” value with ICR mice is on record as “Factor f at P = 0.05 for this experiment is 1.32, therefore the confidence interval for LD50 is 1642-2860 (mg/kg)”; with Wistar rats it was “Factor f at P = 0.05 for this experiment is 1.308, therefore the confidence interval for LD50 is 1720 ÷ 2944 (mg/kg)”.
In the case of `CC(=O)Oc1ccccc1C(=O)O` [ASA, acetylsalicylic acid], in series [1], the solubility in water result is “about 0.3%”.
